In ChEMBL document CHEMBL3727348, “3-(aryl or heteroaryl) methyleneindolin-2-one derivatives as inhibitors of cancer stem cell pathway kinases for the treatment of cancer” (2014):
Calls of active or inactive are those of the source. The rule behind the calls is not given here.

Columns and labels:
[1] = target: Mitogen-activated protein kinase; ERK1/ERK2 (Homo sapiens) (UniProt P27361+P28482); assay: Inhibition of ERK phosphorylation in cells (unknown origin) incubated for 6 hrs by Western blot based cell based method
Chain of Mitogen-activated protein kinase; ERK1/ERK2 (Homo sapiens) (P27361 whole entry, looked up): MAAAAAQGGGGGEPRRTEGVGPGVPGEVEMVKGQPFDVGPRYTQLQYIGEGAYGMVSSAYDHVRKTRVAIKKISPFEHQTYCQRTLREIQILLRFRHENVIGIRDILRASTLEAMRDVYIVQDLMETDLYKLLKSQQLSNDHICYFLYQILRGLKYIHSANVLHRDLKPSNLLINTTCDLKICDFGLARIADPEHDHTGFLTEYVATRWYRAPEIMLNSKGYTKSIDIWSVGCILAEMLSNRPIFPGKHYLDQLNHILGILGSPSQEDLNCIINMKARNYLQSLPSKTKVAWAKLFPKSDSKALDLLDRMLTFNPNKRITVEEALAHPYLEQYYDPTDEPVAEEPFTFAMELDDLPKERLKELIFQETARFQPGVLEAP
Chain of Mitogen-activated protein kinase; ERK1/ERK2 (Homo sapiens) (P28482 whole entry, looked up): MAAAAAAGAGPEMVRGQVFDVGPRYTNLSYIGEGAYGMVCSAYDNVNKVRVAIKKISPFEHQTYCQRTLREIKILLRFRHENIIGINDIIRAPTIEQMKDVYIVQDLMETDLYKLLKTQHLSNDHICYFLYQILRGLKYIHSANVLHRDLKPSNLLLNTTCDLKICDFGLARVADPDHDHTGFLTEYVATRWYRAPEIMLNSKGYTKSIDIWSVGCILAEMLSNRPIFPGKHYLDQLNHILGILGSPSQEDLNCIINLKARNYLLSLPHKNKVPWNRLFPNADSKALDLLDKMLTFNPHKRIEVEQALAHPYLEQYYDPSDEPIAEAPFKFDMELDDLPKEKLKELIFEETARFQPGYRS

[2] = target: T1, Ribosomal protein S6 kinase (Homo sapiens) (UniProt P51812+Q9UBS0+O75676+Q15349+O75582+P23443+Q9UK32+Q15418); assay: Inhibition of RPS6 kinase phosphorylation in cells (unknown origin) incubated for 6 hrs by Western blot based cell based method
[3] = test system: FaDu; assay: Cytotoxic activity against human FADU bulk cells incubated for 72 hrs by Cell-titer-Glo luminescence assay; format: functional, cell-based
[4] = test system: A549; assay: Cytotoxic activity against human A549 bulk cells incubated for 72 hrs by Cell-titer-Glo luminescence assay; format: functional, cell-based; conditions: A549, 72 h
[5] = test system: ACHN; assay: Cytotoxic activity against human ACHN bulk cells incubated for 72 hrs by Cell-titer-Glo luminescence assay; format: functional, cell-based
[6] = test system: FaDu; assay: Cytotoxic activity against human FADU cancer stem cells incubated for 72 hrs by Cell-titer-Glo luminescence assay; format: functional, cell-based
[7] = test system: A549; assay: Cytotoxic activity against human A549 cancer stem cells incubated for 72 hrs by Cell-titer-Glo luminescence assay; format: functional, cell-based; conditions: A549, 72 h
[8] = test system: ACHN; assay: Cytotoxic activity against human ACHN cancer stem cells incubated for 72 hrs by Cell-titer-Glo luminescence assay; format: functional, cell-based
[9] = target: Serine/threonine-protein kinase RIO2 (Homo sapiens) (UniProt Q9BVS4); assay: Inhibition of N-terminal GST-fused full length human recombinant RIOK2 expressed in baculovirus Sf21 cells assessed as reduction in kinase auto-phosphorylation at 1 uM in presence of ATP incubated for 1 hr by ELISA method
Chain of Serine/threonine-protein kinase RIO2 (Homo sapiens) (Q9BVS4 whole entry, looked up, the tested form may be a part): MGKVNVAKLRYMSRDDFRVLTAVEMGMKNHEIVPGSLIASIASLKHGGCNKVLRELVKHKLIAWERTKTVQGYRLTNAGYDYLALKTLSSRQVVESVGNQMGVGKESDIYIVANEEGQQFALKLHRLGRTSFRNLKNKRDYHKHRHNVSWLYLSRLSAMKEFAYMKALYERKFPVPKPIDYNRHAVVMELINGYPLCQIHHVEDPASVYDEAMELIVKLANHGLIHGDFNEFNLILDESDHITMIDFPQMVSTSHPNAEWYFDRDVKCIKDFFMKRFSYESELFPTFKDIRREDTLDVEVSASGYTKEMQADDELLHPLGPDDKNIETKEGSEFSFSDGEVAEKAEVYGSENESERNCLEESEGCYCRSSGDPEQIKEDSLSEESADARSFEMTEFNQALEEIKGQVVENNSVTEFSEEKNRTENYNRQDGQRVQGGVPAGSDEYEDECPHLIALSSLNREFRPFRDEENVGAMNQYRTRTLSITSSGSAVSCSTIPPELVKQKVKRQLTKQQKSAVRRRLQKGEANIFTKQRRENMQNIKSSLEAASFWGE

[10] = target: Serine/threonine-protein kinase RIO2 (Homo sapiens) (UniProt Q9BVS4); assay: Inhibition of N-terminal GST-fused full length human recombinant RIOK2 expressed in baculovirus Sf21 cells assessed as reduction in kinase auto-phosphorylation at 10 uM in presence of ATP incubated for 1 hr by ELISA method
[11] = target: AMP-activated protein kinase, AMPK (Homo sapiens) (UniProt P54646+O43741+P54619+Q9UGJ0+Q9Y478+Q13131+Q9UGI9); assay: Inhibition of AMPK in human HeLa cells assessed as kinase phosphorylation level at 5 uM incubated for 6 hrs by SDS-PAGE based chemiluminescence assay; format: cell-based; set-up: scale not given: the % may be the effect or the level left
[12] = target: T1, Ribosomal protein S6 kinase (Homo sapiens); assay: Inhibition of RPS6 kinase in human HeLa cells assessed as p-RPS6 Ser235/236 phosphorylation level at 5 uM incubated for 6 hrs by SDS-PAGE based chemiluminescence assay; format: cell-based; set-up: scale not given: the % may be the effect or the level left
[13] = target: T1, Ribosomal protein S6 kinase (Homo sapiens); assay: Inhibition of RPS6 kinase in human HeLa cells assessed as p-RPS6 Ser240/244 phosphorylation level at 5 uM incubated for 6 hrs by SDS-PAGE based chemiluminescence assay; format: cell-based; set-up: scale not given: the % may be the effect or the level left

SMILES | inhibition [1] | inhibition [2] | inhibition [9] | inhibition [10] | Activity [11] | Activity [12] | Activity [13] | IC50 [3] | IC50 [4] | IC50 [5] | IC50 [6] | IC50 [7] | IC50 [8]
CCNC(=O)c1c(C)[nH]c(/C=C2\C(=O)Nc3ccc(-c4csc(-c5ccccc5)n4)cc32)c1C | Active | Active | – | – | – | – | – | – | – | – | – | – | –
Cc1[nH]c(/C=C2\C(=O)Nc3ccc(-c4csc(-c5ccccc5)n4)cc32)c(C)c1C(=O)NCCO | – | Active | – | – | – | – | – | – | – | – | – | – | –
Cc1[nH]c(/C=C2\C(=O)Nc3ccc(-c4cnn(-c5ccccn5)c4)cc32)c(C)c1C(=O)NCCN1CCCC1 | – | – | 53% | 91% | 52% | 82% | 92% | 2530 nM | 2.53 µM | 1640 nM | 1650 nM | 11.7 µM | 220 nM
Cc1cc(C)c(/C=C2\C(=O)Nc3ccc(-c4ccc(C=O)cc4)cc32)[nH]1 | Active | – | – | – | – | – | – | 26800 nM | 29.2 µM | – | – | – | –
CCOC(=O)CCc1ccc(-c2nc(-c3ccc4c(c3)/C(=C/c3[nH]c(C)c(C(=O)NCCN(CC)CC)c3C)C(=O)N4)cs2)cc1 | Active | – | – | – | – | – | – | – | – | – | 2520 nM | – | –

Now from value to molecule, other results behind:

inhibition [1] | inhibition [2] | inhibition [9] | inhibition [10] | Activity [11] | Activity [12] | Activity [13] | SMILES | IC50 [3] | IC50 [4] | IC50 [5] | IC50 [6] | IC50 [7] | IC50 [8]
– | – | 55% | 100% | – | – | – | CCN(CC)CCNC(=O)c1c(C)[nH]c(/C=C2\C(=O)Nc3ccc(-c4ccnn4-c4ccccc4)cc32)c1C | 3010 nM | 2.94 µM | 6570 nM | 3460 nM | 5.54 µM | 1170 nM
– | – | 55% | 76% | – | – | – | CCN(CC)CCNC(=O)c1c(C)[nH]c(/C=C2\C(=O)Nc3ccc(-c4cnn(-c5ccccc5)c4C)cc32)c1C | 2840 nM | 29.2 µM | 3540 nM | 1310 nM | 4.9 µM | –
– | – | 36% | 86% | – | – | – | CCN(CC)CCNC(=O)c1c(C)[nH]c(/C=C2\C(=O)Nc3ccc(-c4cnn(-c5ccccn5)c4)cc32)c1C | 510 nM | 1.72 µM | 1240 nM | 50 nM | 2.53 µM | 130 nM
– | – | 45% | 94% | – | – | – | CCN(CC)CCNC(=O)c1c(C)[nH]c(/C=C2\C(=O)Nc3ccc(-c4cnn(-c5ccccc5)c4)cc32)c1C | 6250 nM | 5.35 µM | 2280 nM | 600 nM | 4.83 µM | –
